# Source: paper PMC7070036, “An amber obligate active site-directed ligand evolution technique for phage display” (Nature Communications, 2020)
# Several values for one entry are separate records, joined by “and”; a condition that tells them apart may be missing. Identical values can stand only once. Like-named read-outs stand apart in the source and are kept apart here.
# Assays:
# Assay type in all cases: biochemical
# SIRT2 [1] = molecular target: T1, SIRT2 (Homo sapiens, UniProt Q8IXJ6); assay: Continuous fluorogenic sirtuin inhibition assay, SIRT2 (tBuK peptides, TB)
# T1 sequence (Q8IXJ6 1-389): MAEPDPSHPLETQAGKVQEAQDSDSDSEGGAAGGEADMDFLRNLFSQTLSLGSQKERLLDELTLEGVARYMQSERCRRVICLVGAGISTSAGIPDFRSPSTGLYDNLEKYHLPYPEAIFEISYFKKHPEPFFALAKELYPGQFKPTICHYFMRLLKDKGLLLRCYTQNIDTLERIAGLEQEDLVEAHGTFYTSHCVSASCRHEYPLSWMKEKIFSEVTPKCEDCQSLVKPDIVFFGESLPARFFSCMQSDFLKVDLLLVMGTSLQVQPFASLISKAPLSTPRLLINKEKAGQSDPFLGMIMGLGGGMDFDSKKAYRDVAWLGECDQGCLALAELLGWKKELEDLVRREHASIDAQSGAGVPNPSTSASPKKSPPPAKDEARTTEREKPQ
# Experimental: (§1) The continuous assay for comparing isoform specificity of S2P04 was performed using the universal fluorogenic sirtuin substrate described by Schuster et al.[41]. Briefly, the inhibition reactions were performed in 50-µL volumes at 37 °C in black, half-area, 96-well plates. The sirtuin enzyme (0.25 µM) was preincubated with different concentrations of the peptide S2P04 (0.0064–50 µM for SIRT1 and SIRT2, 0.5–100 µM for SIRT3) or TB (0.16–150 µM for SIRT1–SIRT3), and 1 mM NAD^+ in assay buffer (20 mM Tris, pH 7.8, 150 mM NaCl, 5 mM MgCl2, and 1 mM DTT) for 15 min. Following incubation, the reaction started with the addition of the fluorogenic substrate (5 µM), and product formation was monitored by measuring the fluorescence intensity every 20 s for 5 min (SIRT2) or 30 min (SIRT1 and SIRT3) in a BioTek Synergy H1 microplate reader at λex = 320 nm and λem = 408 nm (gain = 130 and read height = 7 mm). Initial rates of product formation were determined by a linear regression of the plot of fluorescence intensity vs. time and normalized relative to 0% (max inhibitor) and 100% (no inhibitor) controls. The assay was repeated to determine the IC50 values of all BuK peptides for SIRT2. IC50 values were determined by nonlinear regression of the plot of the normalized initial rate vs. inhibitor concentration using GraphPad Prism. The determined IC50 values are provided in Supplementary Table 2, and inhibition curves can be seen in Supplementary Fig. 20.
# SIRT1 = molecular target: T2, SIRT1 (Homo sapiens, UniProt Q96EB6); assay: Continuous fluorogenic sirtuin inhibition assay, SIRT1
# T2 sequence (Q96EB6 1-747): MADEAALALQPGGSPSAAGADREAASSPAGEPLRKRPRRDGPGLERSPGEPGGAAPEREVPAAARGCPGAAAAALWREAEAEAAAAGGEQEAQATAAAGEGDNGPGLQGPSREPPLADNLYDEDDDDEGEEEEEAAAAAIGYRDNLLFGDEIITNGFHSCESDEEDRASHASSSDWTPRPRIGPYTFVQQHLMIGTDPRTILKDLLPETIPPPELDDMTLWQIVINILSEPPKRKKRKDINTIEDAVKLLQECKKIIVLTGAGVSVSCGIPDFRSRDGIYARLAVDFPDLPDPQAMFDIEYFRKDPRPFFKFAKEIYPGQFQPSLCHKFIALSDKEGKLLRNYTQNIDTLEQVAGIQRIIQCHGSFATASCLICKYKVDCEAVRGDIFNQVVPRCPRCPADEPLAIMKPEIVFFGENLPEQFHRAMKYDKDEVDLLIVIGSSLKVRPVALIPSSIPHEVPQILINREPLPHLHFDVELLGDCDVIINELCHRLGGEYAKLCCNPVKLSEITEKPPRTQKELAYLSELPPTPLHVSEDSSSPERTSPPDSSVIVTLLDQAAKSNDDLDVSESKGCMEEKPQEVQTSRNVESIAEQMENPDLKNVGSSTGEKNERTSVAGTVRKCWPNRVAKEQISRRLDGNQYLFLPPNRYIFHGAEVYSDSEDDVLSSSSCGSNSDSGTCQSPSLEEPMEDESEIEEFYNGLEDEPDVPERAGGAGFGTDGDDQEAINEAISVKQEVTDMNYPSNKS
# Experimental: as §1
# SIRT3 = molecular target: T3, SIRT3 (Homo sapiens, UniProt Q9NTG7); assay: Continuous fluorogenic sirtuin inhibition assay, SIRT3
# T3 sequence (Q9NTG7 1-399): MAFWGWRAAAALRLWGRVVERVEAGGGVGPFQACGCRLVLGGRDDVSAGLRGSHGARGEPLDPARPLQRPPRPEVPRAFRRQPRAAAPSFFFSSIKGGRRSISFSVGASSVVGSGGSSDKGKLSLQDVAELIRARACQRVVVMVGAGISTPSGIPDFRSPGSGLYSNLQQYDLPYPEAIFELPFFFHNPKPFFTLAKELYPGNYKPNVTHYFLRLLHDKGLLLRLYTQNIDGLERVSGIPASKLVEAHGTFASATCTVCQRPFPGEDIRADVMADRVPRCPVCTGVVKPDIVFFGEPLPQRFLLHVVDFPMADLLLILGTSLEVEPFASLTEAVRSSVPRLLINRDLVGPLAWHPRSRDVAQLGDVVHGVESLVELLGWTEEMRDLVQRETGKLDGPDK
# Experimental: as §1
# SIRT2 [2] = molecular target: T1, SIRT2; assay: SIRT2 inhibition assay for thiomyristoyl peptides
# Experimental: Assays were performed in 40-µL volumes at 37 °C in black, 384-well plates. […] Following incubation, the reaction started with the addition of the fluorogenic substrate (5 µM), and product formation was monitored by measuring the fluorescence intensity every 20 s for 5 min (SIRT2) in a BioTek Synergy H1 microplate reader at λex = 320 nm and λem = 408 nm (gain = 130 and read height = 7 mm). Initial rates were determined using the plot of fluorescence vs. time for linear portions of each curve. IC50 values were then determined using GraphPad Prism to fit a nonlinear regression to the normalized rates vs. inhibitor concentration.
# [3] = mean ± SD of two independent experiments
compound,measurement,setting,value
"CCCC(=S)NCCCC[C@H](NC(=O)OCc1ccccc1)C(=O)Nc1ccccc1 [TB, reference compound]",IC50,"SIRT2 [1]; 0.25 µM SIRT2, 1 mM NAD+, 5 µM fluorogenic substrate, 15 min preincubation, n = 2, read-out: IC50",3.11 ± 0.045 µM
same,remaining activity at 0.5 µM,"SIRT2 [1]; inhibitor 0.5 µM, read-out: Normalized Activity, SIRT2",112%
same,activity at 0.5 µM,"SIRT2 [1]; inhibitor 0.5 µM, single trials",112%
same,"%Activity, SIRT2","SIRT2 [1]; inhibitor 0.5 µM, single trials, 0.5 µM",98.9568%
same,remaining activity at 1 µM,"SIRT2 [1]; inhibitor 1 µM, read-out: Normalized Activity, SIRT2",80.3%
same,activity at 1 µM,"SIRT2 [1]; inhibitor 1 µM, single trials",80.3%
same,"%Activity, SIRT2","SIRT2 [1]; inhibitor 1 µM, single trials, 1 µM",81.929%
same,remaining activity at 4 µM,"SIRT2 [1]; inhibitor 4 µM, read-out: Normalized Activity, SIRT2",40.6%
same,activity at 4 µM,"SIRT2 [1]; inhibitor 4 µM, single trials",40.6%
same,"%Activity, SIRT2","SIRT2 [1]; inhibitor 4 µM, single trials, 4 µM",42.8707%
same,remaining activity at 10 µM,"SIRT2 [1]; inhibitor 10 µM, read-out: Normalized Activity, SIRT2",6.05%
same,activity at 10 µM,"SIRT2 [1]; inhibitor 10 µM, single trials",6.05%
same,"%Activity, SIRT2","SIRT2 [1]; inhibitor 10 µM, single trials, 10 µM",11.4809%
same,"%Activity, SIRT2","SIRT2 [1]; inhibitor 50 µM, single trials, 50 µM",-6.644% and -4.551%
same,"%Activity, SIRT2","SIRT2 [1]; inhibitor 100 µM, (Activity/Activity w/o inhibitor)*100, single trials, 100 µM",-5.573% and -9.821%
same,remaining activity at 150 µM,"SIRT2 [1]; inhibitor 150 µM, 100 = Activity w/o inhibitor, 0 = Activity of highest inhibitor, read-out: Normalized Activity, SIRT2",0%
same,IC50,"SIRT2 [1]; mean ± SD of two independent experiments, read-out: IC50, SIRT2",3.11 ± 0.04 µM
same,remaining activity at 0.5 µM,"SIRT1; inhibitor 0.5 µM, read-out: Normalized Activity, SIRT1",98.9%
same,remaining activity at 1 µM,"SIRT1; inhibitor 1 µM, read-out: Normalized Activity, SIRT1",99%
same,remaining activity at 4 µM,"SIRT1; inhibitor 4 µM, read-out: Normalized Activity, SIRT1",75%
same,remaining activity at 10 µM,"SIRT1; inhibitor 10 µM, read-out: Normalized Activity, SIRT1",55.9%
same,remaining activity at 150 µM,"SIRT1; inhibitor 150 µM, 100 = Activity w/o inhibitor, 0 = Activity of highest inhibitor, read-out: Normalized Activity, SIRT1",0%
same,IC50,SIRT1; [3],9.62 ± 0.09 µM
same,inhibition of SIRT3,SIRT3; 0.16–150 µM,0 = Activity of highest inhibitor *TB for SIRT3 showed no inhibiton
same,remaining activity at 0.5 µM,"SIRT3; inhibitor 0.5 µM, read-out: Normalized Activity, SIRT3",90.6%
same,remaining activity at 1 µM,"SIRT3; inhibitor 1 µM, read-out: Normalized Activity, SIRT3",91.2%
same,remaining activity at 4 µM,"SIRT3; inhibitor 4 µM, read-out: Normalized Activity, SIRT3",93.9%
same,remaining activity at 10 µM,"SIRT3; inhibitor 10 µM, read-out: Normalized Activity, SIRT3",92.4%
same,remaining activity at 100 µM,"SIRT3; inhibitor 100 µM, read-out: Normalized Activity, SIRT3",79.9%
same,IC50,SIRT3; [3],> 150 µM
"CCCCCCCCCCCCCC(=S)NCCCC[C@H](NC(=O)OCc1ccccc1)C(=O)Nc1ccccc1 [TM, reference compound]",activity at 0.000488281 µM,SIRT2 [2]; inhibitor 0.488281 nM,101%
same,"%Activity, SIRT2","SIRT2 [2]; inhibitor 0.488281 nM, 0.000488281 µM",98.9615%
same,activity at 0.000976562 µM,SIRT2 [2]; inhibitor 0.976562 nM,72.4%
same,"%Activity, SIRT2","SIRT2 [2]; inhibitor 0.976562 nM, 0.000976562 µM",83.3212% and 86.8904% and 88.3827%
same,activity at 0.00195312 µM,SIRT2 [2]; inhibitor 1.95312 nM,90.7%
same,"%Activity, SIRT2","SIRT2 [2]; inhibitor 1.95312 nM, 0.00195312 µM",86.75%
same,"%Activity, SIRT2","SIRT2 [2]; inhibitor 3.90625 nM, 0.00390625 µM",101.659% and 86.3725% and 107.923%
same,"%Activity, SIRT2","SIRT2 [2]; inhibitor 7.8125 nM, 0.0078125 µM",82.8428% and 60.4593% and 105.944% and 110.889%
same,activity at 0.015625 µM,SIRT2 [2]; inhibitor 15.625 nM,83.3%
same,"%Activity, SIRT2","SIRT2 [2]; inhibitor 15.625 nM, 0.015625 µM",84.6885%
same,activity at 0.0625 µM,SIRT2 [2]; inhibitor 62.5 nM,60.2%
same,"%Activity, SIRT2","SIRT2 [2]; inhibitor 62.5 nM, 0.0625 µM",43.9326%
same,activity at 0.125 µM,SIRT2 [2]; inhibitor 125 nM,22.5%
same,"%Activity, SIRT2","SIRT2 [2]; inhibitor 125 nM, 0.125 µM",19.1421%
same,activity at 0.25 µM,SIRT2 [2]; inhibitor 250 nM,12.4%
same,"%Activity, SIRT2","SIRT2 [2]; inhibitor 250 nM, 0.25 µM",20.6592%
same,"%Activity, SIRT2","SIRT2 [2]; inhibitor 500 nM, 0.5 µM",1.575% and -2.11% and 0.5358%
same,activity at 1 µM,SIRT2 [2]; inhibitor 1000 nM,5.56%
same,"%Activity, SIRT2","SIRT2 [2]; inhibitor 1000 nM, 1 µM",5.083%
